Experimental data from BindingDB's records for doi:10.1016/0960-894X(95)00078-8 (1995).
Peptide text beside a SMILES is read from it.

Columns and labels:
[1] = In vitro ability to displace [125 I]CGRP from Calcitonin gene-related peptide type receptor at 4 degrees Centigrade in rabbit lung
[2] = In vitro ability to displace [125 I]CGRP from Calcitonin gene-related peptide type receptor at 4 degrees Celsius in rabbit porcine c+i

Compound | IC50 [1] [µM] | IC50 [2] [µM]
CC(C)C[C@H](NC(=O)COCCOCCNC(=O)[C@@H](NC(=O)[C@H](CS)NC(=O)[C@@H](NC(=O)[C@H](C)NC(=O)[C@@H](NC(=O)[C@H](CC(=O)O)NC(=O)[C@H](CS)NC(=O)[C@H](C)N)[C@@H](C)O)[C@@H](C)O)C(C)C)C(=O)N[C@@H](CO)C(=O)N[C@@H](CCCNC(=N)N)C(=O)N[C@@H](CO)C(=O)NCC(=O)NCC(=O)N[C@H](C(=O)N[C@H](C(=O)N[C@@H](CCCCN)C(=O)N[C@@H](CC(N)=O)C(=O)N[C@@H](CC(N)=O)C(=O)N[C@@H](Cc1ccccc1)C(=O)N[C@H](C(=O)N1CCC[C@H]1C(=O)N[C@H](C(=O)N[C@@H](CC(N)=O)C(=O)N[C@H](C(=O)NCC(=O)N[C@@H](CO)C(=O)N[C@@H](CCCCN)C(=O)N[C@@H](C)C(=O)N[C@@H](Cc1ccccc1)C(=O)O)C(C)C)[C@@H](C)O)C(C)C)C(C)C)C(C)C | 0.185 | 0.995
CC(C)[C@H](NC(=O)CNC(=O)CNC(=O)[C@H](CO)NC(=O)[C@H](CCCN=C(N)N)NC(=O)[C@@H](NC(=O)[C@H](CCCN=C(N)N)NC(=O)[C@@H](NC(=O)[C@H](Cc1c[nH]cn1)NC(=O)[C@@H](NC(=O)[C@H](CS)NC(=O)[C@@H](NC(=O)[C@H](C)NC(=O)[C@@H](NC(=O)[C@H](CC(=O)O)NC(=O)[C@H](CS)NC(=O)[C@H](C)N)[C@@H](C)O)[C@@H](C)O)C(C)C)C(C)C)C(C)C)C(=O)N[C@H](C(=O)N[C@@H](CCCCN)C(=O)N[C@@H](CC(N)=O)C(=O)N[C@@H](CC(N)=O)C(=O)N[C@@H](Cc1ccccc1)C(=O)N[C@H](C(=O)N1CCC[C@H]1C(=O)N[C@H](C(=O)N[C@@H](CC(N)=O)C(=O)N[C@H](C(=O)NCC(=O)N[C@@H](CO)C(=O)N[C@@H](CCCCN)C(=O)N[C@@H](C)C(=O)N[C@@H](Cc1ccccc1)C(N)=O)C(C)C)[C@@H](C)O)C(C)C)C(C)C (H-ACDTATCVHVRVRSGGVVKNNFVPTNVGSKAF-NH2) | 0.004 | 0.014
